Measured values taken from PubChem BioAssay (NCI).
Where “and” joins values, the source holds several entries; their conditions need not be identical. Identical values can stand only once.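 96-well plates; 48 h exposure; 5 concentrations. Endpoints by linear interpolation between flanking doses. Not reached: highest tested concentration assigned. At the GI50, growth is halved. TGI is the concentration that stops growth completely.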

What was measured:
Assay in all cases: NCI anticancer screen, dose series, 48 h
ACHN renal = system: ACHN renal
SF-268 CNS = system: SF-268 CNS
HOP-92 NSCLC = system: HOP-92 NSCLC
NCI-H522 lung = system: NCI-H522 lung
SW-620 colon = system: SW-620 colon
K-562 leukemia = system: K-562 leukemia
SR leukemia = system: SR leukemia
UACC-257 melanoma = system: UACC-257 melanoma
HCT-15 colon = system: HCT-15 colon
HCC-2998 colon = system: HCC-2998 colon

Row | Compound | TGI (ACHN renal) | TGI (SF-268 CNS) | TGI (HOP-92 NSCLC) | TGI (NCI-H522 lung) | TGI (SW-620 colon) | TGI (K-562 leukemia) [µM] | TGI (SR leukemia) [µM] | TGI (UACC-257 melanoma) | GI50 (ACHN renal) [µM] | GI50 (SF-268 CNS) [µM] | GI50 (HOP-92 NSCLC) | GI50 (NCI-H522 lung) [µM] | GI50 (SW-620 colon) [µM] | GI50 (K-562 leukemia) [µM] | GI50 (HCT-15 colon) [µM] | TGI (HCT-15 colon) [µM] | GI50 (HCC-2998 colon) [µM] | TGI (HCC-2998 colon) | GI50 (SR leukemia) [µM] | GI50 (UACC-257 melanoma) [µM]
1 | Clc1cc(Cl)cc(C2SCc3nc4ccccc4n32)c1 (stereo not drawn) | 69 µM | 59.3 µM | 47.2 µM | 39.3 µM | 33.6 µM | 25.2 | > 100 | 32.4 µM |  |  |  |  |  |  |  |  |  |  |  | 
2 | COc1ccc2c(c1)O/C(=C\c1ccc([N+](=O)[O-])o1)C2=O | 2.69 µM | 16.8 µM | 5.62 µM | 2.57 µM | 1.39 µM | 1.91 | 0.964 | 3.85 µM | 0.625 | 2 | 1.95 µM | 1.25 | 0.294 | 0.352 | 0.271 | 1.26 | 1.81 | 3.64 µM | 0.178 | 1.72
3 | CCN(CC)c1ccc(CNc2cc(C)nc3ccc(OC)cc23)cc1 | 7.17 µM | 16.1 µM | 6.26 µM | 3.28 µM | 3.47 µM | 4.34 | 4.56 | 4.53 µM | 2.63 | 4.17 | 2 µM | 1.51 | 1.75 | 1.37 | 3.11 | 10.8 | 1.77 | 3.32 µM | 1.87 | 2.14
4 | O=C(NCCN1CCOCC1)Nc1nc2ccc(Sc3nnc4ccc(-c5ccc(F)cc5)nn34)cc2s1 | > 100 µM | > 100 µM | > 100 µM | > 100 µM | > 100 µM | > 100 | > 100 | > 21.2 µM | > 90.8 | > 23.3 | 3.32 µM | 26.4 |  | 2.31 | > 26.7 | > 100 | 17.3 | > 100 µM | 5.04 | 7.94
5 | CC[C@]12C=CCN3CC[C@@]4(c5ccc(OC)cc5N(C)[C@H]4[C@@](O)(C(=O)OC)[C@@H]1OC(=O)CCCC[P+](c1ccccc1)(c1ccccc1)c1ccccc1)[C@@H]32 | 30.1 µM | 3.98 µM | 1.35 µM | 1.77 µM | 12.6 µM | 11.4 | 4.14 | 1.09 µM | 14 | 0.644 | 0.238 µM | 0.295 | 1.14 | 0.789 | 19.4 | 43.6 | 0.42 | 2.71 µM | 0.446 | 0.279
6 | COC1=CC(=O)c2c(O)c3c(c(O)c2C1=O)OC1(Oc2c(cc4cc(C)oc(=O)c4c2O)CC1O)C3O (stereo not drawn) | > 100 µM | > 100 µM | > 100 µM | 54.6 µM | > 100 µM | > 100 | > 100 | > 100 µM |  |  |  |  |  |  |  | > 100 |  | 63.8 µM |  | 
7 | CCCCCCCCCCCCCCCCSS(C)(=O)=O | 32.3 µM | > 35.9 µM | 37.9 µM | 11 µM | 13.2 µM | 27.9 | 21.1 | > 93.5 µM |  |  |  |  |  |  |  | 39.2 |  | > 72.5 µM |  | 
8 | COc1ccccc1CN=C1NC(=O)/C(=C/c2ccc3ncccc3c2)S1 | > 25 µM | > 25 µM | 22 µM | 13 µM | > 25 µM | > 25 | > 17.9 | > 25 µM | 7.49 | 7.89 | 6.24 µM | 4.96 | 4.54 | 8.4 | 4.55 | > 25 | 17.5 | > 25 µM | 1.87 | > 25
9 | O=C1/C(=N/N=C(c2ccccc2)c2ccccc2)c2ccccc2-c2ccccc21 | > 100 µM | > 100 µM | 87.8 µM | > 100 µM | > 100 µM | > 100 | > 100 | > 100 µM |  |  |  |  |  |  |  | > 100 |  |  |  | 
10 | N#CC1=C(c2ccccc2)NN(Cc2ccccc2)C(c2ccc(Cl)cc2)CC1=O (stereo not drawn) | > 100 µM | > 100 µM | 45.1 µM | 38.5 µM | 54.8 µM |  | > 100 | > 100 µM |  |  |  |  |  |  |  | 90.6 |  |  |  | 
11 | Cc1cc(C)nc(NS(=O)(=O)c2ccc(Nc3nc4nc(NCc5ccccc5)nc(-c5ccc(O)cc5)c4c(=O)[nH]3)cc2)n1 | > 100 µM | > 100 µM | 61.3 µM | 22.8 µM | > 100 µM | > 100 | 81.3 |  | 29.6 | 18 | 14.6 µM | 2.61 | 26.7 | 4.84 | 32.4 | > 100 | > 100 | > 100 µM | 17.9 | 
12 | Nc1nc(=O)c2[nH]cnc2n1O | > 100 µM | > 100 µM | > 100 µM | > 100 µM | > 100 µM | > 100 | > 100 | > 100 µM |  |  |  |  |  |  |  | > 100 |  |  |  | 
13 | Cc1cc(NCCCNc2ccnc3cc(Cl)ccc23)nc(Nc2ccc(C(=O)N3CCCCC3)cc2)n1 | 8.23 µM | 5.11 µM |  | 4.45 µM | 4.52 µM | 6.4 | 4.24 | 4.56 µM | 2.85 | 1.91 |  | 2.19 | 2.12 | 1.98 | 2.52 | 6.79 | 2.47 | 6.65 µM | 1.72 | 2.39
14 | NC(N)=NS(=O)(=O)c1ccc(NC(=O)c2cccn3c(=O)c4ccccc4nc23)cc1 | > 100 µM | > 100 µM | > 100 µM | > 100 µM | > 100 µM | 90.1 | 84.3 | 58.7 µM |  |  |  |  |  |  |  |  |  | > 100 µM |  | 
15 | Cc1ccc(C(=O)Nc2ccc(CN3CCN(C)CC3)c(C(F)(F)F)c2)cc1C#Cc1cnc(N)c2ccc(C#N)cc12 | 6.23 µM | 17.2 µM | 0.714 µM | > 25.2 µM | > 28.3 µM |  |  | > 35 µM | 0.0182 | 0.206 | 0.0134 µM | 0.605 | 1.8 |  | 0.0558 | 8.77 | 9.41 | > 50 µM | 0.135 | 0.332
16 | CN(C)c1ccc(/C=N/NC(=O)CSc2nc3sc4c(c3c(=O)n2-c2ccccc2)CCCCC4)cc1 | > 100 µM | > 100 µM | 29 µM | > 100 µM | > 100 µM |  | > 100 | > 100 µM | 5.59 | 11.5 | 3.55 µM | 3.89 | 3.56 |  | 3.96 | > 100 | 7.5 | > 100 µM | 3 | > 100
17 | O=C(/C=C/c1ccc[nH]1)c1ccccc1 | > 100 µM | > 100 µM | > 100 µM | > 100 µM | > 100 µM | > 100 | > 100 | > 100 µM |  |  |  |  |  |  |  | > 100 |  |  |  | 
18 | CC1OC(OC23C(=O)CC(C)(O)CC2(O)C=CC2=C3C(=O)c3ccc(C4CC(OC5CCC(OC6CC(O)C(O)C(C)O6)C(C)O5)C(O)C(C)O4)c(O)c3C2=O)CCC1O (stereo not drawn) | 31.4 µM and 30.8 µM | 31.4 µM and 31.2 µM | 28.7 µM and 14.8 µM | 3.83 µM and 3.5 µM | 15.7 µM and 10.9 µM | > 100 | > 100 | 31.9 µM and 28.8 µM |  |  | 15.2 µM and 4.81 µM |  |  |  |  |  |  | 31.1 µM and 27.3 µM |  | 
19 | CN(Cc1ccccc1)c1ncnc2ccc(Br)cc12 | 28.1 µM | 27.5 µM | 25.8 µM | > 100 µM |  | 18.6 | 38 |  | 12.6 | 10.2 | 7.16 µM | 23.1 |  | 4.4 | 14.1 | 32 | 11.9 | 26.3 µM | 16.5 | 
20 | COc1ccc(C(=C(C#N)C#N)c2ccc(OC)cc2)cc1 | > 100 µM | > 100 µM |  | > 100 µM | > 100 µM | > 100 | > 100 | > 100 µM |  |  |  |  |  |  |  | > 100 |  | > 100 µM |  | 
21 | C[C@]12CC/C(=N\O)C[C@@H]1CC[C@@H]1[C@@H]2CC[C@]2(C)/C(=N/O)CC[C@@H]12 | > 100 µM |  | > 100 µM | 58.3 µM | > 100 µM | > 100 | > 100 | > 100 µM | 50.1 |  | > 100 µM | 21 | 57.1 | 40.9 | 43.3 | > 100 |  |  | 35 | 37.6
22 | COc1cc(/C=C/C(=O)c2ccc(F)cc2)ccc1OCCCCOc1cc2c(cc1OC)C(=O)N1CCCC1C=N2 (stereo not drawn) | > 20.5 µM | 12.5 µM | 0.673 µM | 4.35 µM |  | 4.05 | 0.841 |  | 1.07 | 1.03 |  | 1.64 | 0.481 | 0.62 | 1.07 | > 28.2 | 0.674 | 9.61 µM | 0.188 | 
23 | CO[C@H](C(=O)O[C@H]1C(=O)N2CCC3CCC1C32C)c1ccccc1 (stereo partly drawn) | > 100 µM | > 100 µM |  | > 100 µM | > 100 µM | > 100 | > 100 | > 100 µM |  |  |  |  |  |  |  | > 100 |  | > 100 µM |  | 
